{
  "source": "paper PMC8548882",
  "about": "“The Trp-rich Antimicrobial Amphiphiles With Intramolecular Aromatic Interactions for the Treatment of Bacterial Infection” (Frontiers in Microbiology, 2021)",
  "key": {"[1]": {"test_system": "E. coli 25922", "type": "cell-based, Escherichia coli ATCC 25922", "source_text": "(§1) The tested strains were kindly provided by the laboratory of Veterinary Microbiology and Immunology, the College of Veterinary Medicine, Northeast Agricultural University (gram-negative bacteria, Salmonella enterica serovar typhimurium C77-31, Salmonella typhimurium ATCC 14028, Escherichia coli ATCC 25922, Pseudomonas aeruginosa ATCC 27853 and gram-positive bacteria, Staphylococcus aureus ATCC 29213, Staphylococcus aureus ATCC 43300, Staphylococcus epidermidis ATCC 12228, Staphylococcus aureus ATCC 25923)."}, "[2]": {"test_system": "P.aeruginosa 27853", "type": "cell-based, Pseudomonas aeruginosa ATCC 27853", "settings": "27853", "source_text": "as §1\n(§2) The famous microtiter dilution, National Committee for Clinical Laboratory Standards, was adopted to measure the antimicrobial ability of the engineering peptides ([Chou et al., 2016]). In brief, the 50μl with serial dilution was incubated with the same volume bacteria (1×10^5CFU/ml in midi-logarithmic phase) in a 96-well plate 18–24h at 37°C. The positive control was the bacteria treated with culture medium and the negative control was merely culture medium. The MICs (minimum inhibitory concentrations) were defined as the lowest concentration of peptides that prevented the production of visible turbidity ([Tossi et al., 2000])."}, "[3]": {"test_system": "MRSA 43300", "type": "cell-based, Staphylococcus aureus ATCC 43300", "settings": "microtiter dilution, 1×10^5CFU/ml, 18–24h at 37°C, visible turbidity", "source_text": "as §1, §2"}, "[4]": {"test_system": "panel of gram-negative and gram-positive bacteria", "settings": "over the eight strains of Table 2", "description": "as §2"}, "[5]": {"test_system": "IPEC-J2 cells", "type": "cell-based, porcine", "settings": "IPEC-J2; ratio of IC50 to GM", "description": "(§3) The MTT (3-[4,5 dimethylthiozol-2-yl]-2,5-diphenylterazoliumbromide) dye was selected to analyze the cytotoxicity of peptides against the murine macrophage cell RAW 264.7 (National Collection of Authenticated Cell Cultures, Shanghai, China), human embryonic kidneys (HK293T), and the porcine intestinal epithelial cells (IPEC-J2) as in our previously study ([Li et al., 2020]). In short, the cells (10^4 cells/well) were seeded into 96-well plates and were cultivated overnight. Then the peptides with different final concentration (2μM, 4μM, 8μM, 16μM, 32μM, 64μM, and 128μM) were introduced into the plate and challenged with cells for 24h. After overnight incubation, the 50μl MTT (0.5mg/ml) was added into the cell cultures for 4h. Then the plate was centrifuged to discard the supernatants and obtain the formazan crystals. The DMSO (dimethyl sulfoxide) was employed as a solvent to dissolve the formazan crystals on the bottom of the plate and the optical density was read at 492nm with a microplate reader."}, "[6]": {"test_system": "HEK 293T cells", "type": "cell-based, human", "settings": "ratio of IC50 to GM", "description": "as §3"}, "[7]": {"test_system": "P. aeruginosa 27853", "type": "cell-based, Pseudomonas aeruginosa ATCC 27853", "description": "The famous microtiter dilution, National Committee for Clinical Laboratory Standards, was adopted to measure the antimicrobial ability of the engineering peptides ([Chou et al., 2016]). In brief, the 50μl with serial dilution was incubated with the same volume bacteria (1×10^5CFU/ml in midi-logarithmic phase) in a 96-well plate 18–24h at 37°C. The positive control was the bacteria treated with culture medium and the negative control was merely culture medium. […] The antimicrobial performance of peptides against P. aeruginosa 27853 cells was further studied under the complicated physiological conditions ([Lyu et al., 2016]). […] The serum was also taken into the consideration for the adverse impact on the antimicrobial effect of peptides."}, "[8]": {"test_system": "P. aeruginosa ATCC 27853", "test": "Time-kill curve", "type": "cell-based, Pseudomonas aeruginosa ATCC 27853", "settings": "1×10^5CFU/ml, colony counting on MHA, mean of three assays", "description": "The logarithmic phase bacterial cells (P. aeruginosa ATCC 27853 and S. aureus ATCC 29213) were harvested and diluted to 1×10^5CFU/ml ([Dou et al., 2017]). The testing peptides at different concentrations (1×MIC, 2×MIC, and 4×MIC) were challenged with bacteria at a series of time intervals (0, 5, 10, 30, 60, and 120min). Then the reaction system was diluted several times and plated on Mueller-Hinton agar (MHA, AoBoX, Shanghai, China) plates. The plates were incubated 24h at 37°C in order to count the bacterial colonies. The data were the means of three times independent assays."}, "[9]": {"test": "CD spectrum, secondary structure", "type": "physicochemical", "settings": "150μM peptide", "description": "The circular dichroism (CD) spectrum was further determined by analysis the secondary structure of peptides in different membrane-mimic environments ([Dong et al., 2014b]). The two totally different mimic environments were 10mM PBS and 50% TFE solution and the final concentration of peptides was fixed at 150μM Then the samples were transferred into a rectangular quartz cuvette (1mm path length) and further underwent the scanning of J-820 spectropolarimeter (Jasco, Tokyo, Japan) at the speed of 50nm/min. The wavelengths ranged from 190 to 250nm and were recorded to plot the observed ellipticity curve. The observed value at each time point was the average of three scans. The results were presented of mean residue ellipticity, which was calculated from the observed ellipticity as follows. θM=θobs⋅1000/(c⋅l⋅n); ([Zhu et al., 2014a])"}, "[10]": {"test_system": "hRBC, IPEC-J2, HEK 293T, RAW264.7", "settings": "hRBC, IPEC-J2, HEK 293T, RAW264.7; listed as F5", "description": "Besides, the therapeutic index of peptide in the mammalian eukaryotic cell (RAW 264.7, HEK 293T, and IPEC J2) was also calculated to study the biocompatibility of peptides."}, "[11]": {"test_system": "normal skin tissue", "settings": "mouse, in vivo, sc, 5 mg/kg"}, "[12]": {"test_system": "Pseudomonas aeruginosa ATCC 27853", "test": "Subcutaneous abscess model"}},
  "note": "Ends that are not written are not given here.",
  "data": [
    {"substance": "VKKWVKKWVKKWVKKW-NH2 [VW5]", "values": [
      {"measurement": "MIC", "setting": "[1]", "value": 2, "unit": "µM"},
      {"measurement": "MIC", "setting": "[2]", "value": 1, "unit": "µM"},
      {"measurement": "MIC", "setting": "[3]", "value": 2, "unit": "µM"},
      {"measurement": "GMMIC, geometric mean of the MICs", "setting": "[4]", "value": 1.68, "unit": "µM"},
      {"measurement": "Therapeutic index (TI)", "setting": "[5]", "value": 3051.34},
      {"measurement": "Therapeutic index (TI)", "setting": "[6]", "value": 5090.03},
      {"measurement": "change of MIC compared to the control", "setting": "[7]; 12.5% serum", "value": "did not change"},
      {"measurement": "increase of MIC compared to the control", "setting": "[7]; 50% serum", "value": "fourfold"},
      {"measurement": "time to complete eradication of bacterial cells", "setting": "[8]; 2×MIC", "value": 10, "unit": "min"},
      {"measurement": "time to complete eradication of bacterial cells", "setting": "[8]; 4×MIC", "value": 30, "unit": "min"},
      {"measurement": "secondary structure (CD)", "setting": "[9]; 10mM sodium phosphate buffer", "value": "unordered conformation"},
      {"measurement": "secondary structure (CD)", "setting": "[9]; 50% TFE", "value": "α-helical tendency"},
      {"measurement": "GMTI, geometric mean of TI of various cell lines", "setting": "[10]", "value": "> 1218.17"},
      {"measurement": "apoptotic cells in epidermal layer (TUNEL)", "setting": "[11]", "value": "no obvious green fluorescence"},
      {"measurement": "bacterial load in the abscess lesion", "setting": "[12]; 5mg/kg intraperitoneally twice a day, Day 3, n=6", "value": "12.72±2.26 ×10^9CFU/abscess"},
      {"measurement": "IL-1β in serum", "setting": "[12]; 5mg/kg, Day 3, ELISA, saline 95.99±4.31", "value": "72.36 ± 4.15", "unit": "pg/mL"},
      {"measurement": "IL-1α in serum", "setting": "[12]; 5mg/kg, Day 3, ELISA, saline 99.95±4.71", "value": "79.82 ± 4.79", "unit": "pg/mL"},
      {"measurement": "TNF-α in serum", "setting": "[12]; 5mg/kg, Day 3, ELISA, saline 1020.654±51.08", "value": "756.62 ± 39.12", "unit": "pg/mL"},
      {"measurement": "IL-2 in serum", "setting": "[12]; 5mg/kg, Day 3, ELISA, saline 1492.65±48.11", "value": "1296.25 ± 150.86", "unit": "pg/mL"},
      {"measurement": "histological examination of abscess lesion, dermal tissue structures", "setting": "[12]; 5mg/kg, HE staining, Day 3", "value": "relative integrity"}
    ]}
  ]
}
